Experimental data: paper PMC4476799, “Englerin A Agonizes the TRPC4/C5 Cation Channels to Inhibit Tumor Cell Line Proliferation” (PLoS ONE, 2015)
Like-named read-outs stand apart in the source and are kept apart here.

Tested on: cancer cell lines from the cancer cell line encyclopedia (CCLE)
Experiment: Cell line profiling (CLiP) proliferation experiment
Type: cell-based
Conditions: Homo sapiens; for IC50: read-out: Crossing Point; for EC50: read-out: Inflection Point
Method: Compound profiling experiment and data analysis was performed as previously described. Data was imported and plotted using the Tibco Spotfire DXP application. Lines were categorized as sensitive, intermediate and refractory as follows: Amax<-40 & Inflection Point <2 ~ Sensitive, Amax>-20 & Inflection Point >10 ~ Refractory, all else were called Intermediate. Cancer Cell line HG-U133 Plus 2 data was processed and normalized as described. […] Five sets of refractory cell lines were generated from the pool of refractory cell lines trying to match the lineage composition of the set of sensitive cell lines. The limma package was used as previously described to perform the statistical comparison.

[1] = RS4-11, RS4;11 (haematopoietic_and_lymphoid_tissue)
[2] = RS4-11, cell line RS4;11, haematopoietic_and_lymphoid_tissue, acute_lymphoblastic_B_cell_leukaemia
[3] = RT-112, cell line RT-112, urinary_tract, transitional_cell_carcinoma
[4] = RVH-421, cell line RVH-421, skin
[5] = SCaBER, cell line SCaBER, urinary_tract, transitional_cell_carcinoma
[6] = SET-2, cell line Set-2, haematopoietic_and_lymphoid_tissue, essential_thrombocythaemia
[7] = SF-126, cell line SF126, central_nervous_system, astrocytoma
[8] = SHP77, cell line SHP-77, lung, small_cell_carcinoma
[9] = SJRH30, cell line SJRH30, soft_tissue
[10] = SK-CO-1, cell line SK-CO-1, large_intestine, adenocarcinoma
[11] = SK-ES1, cell line SK-ES-1, bone
[12] = SK-MEL-24, cell line SK-MEL-24, skin
[13] = SK-MES-1, cell line SK-MES-1, lung, squamous_cell_carcinoma
[14] = SK-N-SH, cell line SK-N-SH, autonomic_ganglia
[15] = SKM-1, cell line SKM-1, haematopoietic_and_lymphoid_tissue, acute_myeloid_leukaemia

CC(C)[C@@]12C[C@@H](O)[C@@](C)(O1)[C@@H]1CC[C@@H](C)[C@H]1[C@@H]2OC(=O)/C=C/c1ccccc1 [Englerin B]
21.6 µM: IC50 [11]
11.1 µM: EC50 [12]
12.1 µM: EC50 (SNU1, SNU-1 (stomach))
12.3 µM: EC50 (SF-126, SF126 cells) | EC50 [7]
12.9 µM: EC50 (SCaBER, SCaBER (urinary_tract)) | EC50 [5]
> 30 µM: IC50 (RVH-421, RVH-421 cells) | IC50 [4] | IC50 (Rh18, RH-18 cells) | IC50 (Rh18, cell line RH-18) | IC50 (SCaBER, SCaBER (urinary_tract)) | IC50 [5] | IC50 (SHP77, SHP-77 cells) | IC50 [8] | IC50 (SK-BR-3, SK-BR-3 cells) | IC50 (SK-BR-3, cell line SK-BR-3, breast) | IC50 (SK-LMS-1, SK-LMS-1 cells) | IC50 (SK-LMS-1, cell line SK-LMS-1, soft_tissue) | IC50 (SK-LU-1, SK-LU-1 (lung)) | IC50 (SK-LU-1, cell line SK-LU-1, lung, adenocarcinoma) | IC50 (SK-MEL3, SK-MEL-3 cells) | IC50 (SK-MEL3, cell line SK-MEL-3, skin) | IC50 (SK-MEL-2, SK-MEL-2 (skin)) | IC50 (SK-MEL-2, SK-MEL-2, second row, PRIMARY_SITE (Empty)) | IC50 (SK-MEL-2, cell line SK-MEL-2, skin) | IC50 (SK-MEL-5, SK-MEL-5 (skin)) | IC50 (SK-MEL-5, cell line SK-MEL-5, skin) | IC50 (SK-MEL-24, SK-MEL-24 (skin)) | IC50 [12] | IC50 (SK-N-AS, SK-N-AS (autonomic_ganglia)) | IC50 (SK-N-AS, cell line SK-N-AS, autonomic_ganglia) | IC50 (SK-N-DZ, SK-N-DZ cells) | IC50 (SK-N-DZ, cell line SK-N-DZ, autonomic_ganglia) | IC50 (SK-N-FI, SK-N-FI (autonomic_ganglia)) | IC50 (SK-N-FI, cell line SK-N-FI, autonomic_ganglia) | IC50 (SK-N-SH, cell line SK-N-SH (autonomic_ganglia, NS)) | IC50 [14] | IC50 (SK-OV-3, SK-OV-3 (ovary)) | IC50 (SK-OV-3, cell line SK-OV-3, ovary, adenocarcinoma) | IC50 (SK-UT-1, SK-UT-1 (soft_tissue)) | IC50 (SK-UT-1, cell line SK-UT-1, soft_tissue) | IC50 (SKNBE2, cell line SK-N-BE(2), autonomic_ganglia) | IC50 (SKNBE2, cell line SK-N-BE(2)) | IC50 (SNB-19, SNB-19 cells) | IC50 (SNB-19, cell line SNB-19, central_nervous_system, astrocytoma_Grade_IV) | IC50 (SNU1, SNU-1 (stomach))
23.2 µM: IC50 [7]
24.5 µM: EC50 [15]
19.8 µM: IC50 (SF-295, cell line SF-295, central_nervous_system, astrocytoma_Grade_IV)
15.9 µM: IC50 [6]
16.7 µM: IC50 (RT-112, RT-112 cells) | EC50 (RT-112, RT-112 cells) | IC50 [3] | EC50 [3]
29.1 µM: IC50 (SJSA-1, cell line SJSA-1, bone)
28 µM: IC50 (SK-MEL-30, cell line SK-MEL-30, skin)
14.5 µM: EC50 (SHP77, SHP-77 cells) | EC50 [8]
18.4 µM: EC50 (Raji, Raji cells) | EC50 (Raji, cell line Raji) | IC50 (Rec1, REC-1 cells) | EC50 (Rec1, REC-1 cells) | IC50 (Rec1, cell line REC-1) | EC50 (Rec1, cell line REC-1)
17.4 µM: IC50 [9]
16.1 µM: EC50 (SJSA-1, SJSA-1 cells) | EC50 (SJSA-1, cell line SJSA-1, bone)
11.6 µM: EC50 (RVH-421, RVH-421 cells) | EC50 [4] | EC50 (Rh41, RH-41 (soft_tissue)) | IC50 (Rh41, cell line RH-41) | EC50 (Rh41, cell line RH-41) | EC50 (SK-CO-1, SK-CO-1 (large_intestine)) | EC50 [10]
21.1 µM: IC50 [15] | IC50 (SKM-1, cell line SKM-1)
26.5 µM: IC50 [13]
17.6 µM: IC50 (Raji, cell line Raji)
17.9 µM: IC50 [1] | EC50 [1] | IC50 [2] | EC50 [2]
15.5 µM: EC50 [9]
25 µM: EC50 (SK-MES-1, SK-MES-1 cells) | EC50 [13]
17.8 µM: IC50 [10]
20.4 µM: EC50 [11]
22.9 µM: EC50 (SET-2, Set-2 (haematopoietic_and_lymphoid_tissue)) | EC50 [6]
7.74 µM: EC50 [14]
19.6 µM: IC50 (SK-MEL-1, cell line SK-MEL-1, skin)
